Assays:
Details in all cases: in vivo
[1] = Volume of distribution in Swiss mouse at 5 mg/kg, po and 1 mg/kg, iv; type: ADME, organism-based
[2] = Oral bioavailability in Swiss mouse at 5 mg/kg; type: ADME, organism-based
[3] = Volume of distribution in Beagle dog at 5 mg/kg, po and 1 mg/kg, iv; type: ADME, organism-based, Canis lupus familiaris
[4] = Oral bioavailability in Sprague-Dawley rat at 10 mg/kg; type: ADME, organism-based
[5] = Oral bioavailability in Beagle dog at 5 mg/kg; type: ADME, organism-based, Canis lupus familiaris
[6] = Volume of distribution in Sprague-Dawley rat at 10 mg/kg, po and 1 mg/kg, iv; type: ADME, organism-based

Vd [1] [L/kg]	bioavailability [2] [%]	Vd [3] [L/kg]	bioavailability [4] [%]	bioavailability [5] [%]	Vd [6] [L/kg]	Structure (SMILES)
			3.8		0.5	COc1cc(C)c(S(=O)(=O)N(C)CCOCC(=O)N2CCC(C(C)(C)CN(C)C)CC2)c(C)c1
0.5	38		19		0.79	COc1cc(C)c(S(=O)(=O)N(C)CCOCC(=O)N2CCC(CCN(C)C)CC2)c(C)c1
			6		0.6	COc1cc(C)c(S(=O)(=O)N(C)CCOCC(=O)N2CCC(N3CCN(C)CC3)CC2)c(C)c1

The next lines start with the compound.

Structure (SMILES)	Vd [1] [L/kg]	bioavailability [2] [%]	Vd [3] [L/kg]	bioavailability [4] [%]	bioavailability [5] [%]	Vd [6] [L/kg]
COc1cc(C)c(S(=O)(=O)N(C)CCOCC(=O)N2CCN([C@@H]3CN4CCC3CC4)CC2)c(C)c1	1	6.7				
COc1cc(C)c(S(=O)(=O)N(C)CCOCC(=O)N2CCN(C3CCN(C)CC3)CC2)c(C)c1	1.3	22	2.7	18	43	1.5
CCN1CCC(N2CCN(C(=O)COCCN(C)S(=O)(=O)c3c(C)cc(OC)cc3C)CC2)CC1				12		3.8
COc1cc(C)c(S(=O)(=O)N(C)CCOCC(=O)N2CCN(CC3CCN(C)CC3)CC2)c(C)c1				16		3.5
COc1cc(C)c(S(=O)(=O)N(C)CCOCC(=O)N2CCC(C3CCN(C)CC3)CC2)c(C)c1				12.3		0.6
COc1cc(C)c(S(=O)(=O)N(C)CCOCC(=O)N(C)Cc2ccc(C3=NCCN3)cc2)c(C)c1 [SAFOTIBANT]	2.6	12		0.3		1.4
